Experimental data: PubChem BioAssay (NCI)
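Where inhibition never reached the appropriate level, the endpoint shown equals the highest concentration tested. Otherwise, values were interpolated linearly from a five-concentration, 48-hour dose response in 96-well plates. TGI denotes the concentration required for complete inhibition of growth.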

Tested on: SNB-78 CNS
Assay: DTP human tumour cell line panel, 48 h

**Q.** `CCCCCCCCCC/C=C/C=O` was tested. Which TGI did it give?
**A.** > 100 µM
